Experimental data as given in patent publication US11584728B2, “Compositions and methods for the prevention and/or treatment of mitochondrial disease, including Friedreich's ataxia” (STEALTH BIOTHERAPEUTICS INC., priority 2019, dated 2023).
Read-outs that look alike come from different tables or passages of the source.

Experiments:
[1] = test system: frataxin deficient fibroblasts (GM03665); assay: Frataxin Deficient Fibroblast Viability Assay (BSO Assay); settings: Homo sapiens, 48 h
[2] = test system: HepG2 human hepatocarcinoma cells; assay: Rotenone ATP-Assay (Complex I by-pass); format: cell-based; settings: for Activity in both the BSO Assay and the Rotenone ATP Assay (in words): circumvent BSO induced cell death and restore ATP production when Complex I is inhibited; for EC50: Homo sapiens, 1 h, HepG2 cells, 50 micromolar rotenone, 60 minutes
Experimental: Example 18: Rotenone ATP-Assay
Introduction: • This assay has been adapted from Haefeli R H, Erb M, Gemperli A C, Robay D, Courdier Fruh I, et al. (2011) NQO1-Dependent Redox Cycling of Idebenone: Effects on Cellular Redox Potential and Energy Levels. PLoS ONE 6(3): e17963. HepG2 human hepatocarcinoma cells were co-incubated with the electron transport chain Complex I toxin rotenone +/−compounds of interest and the corresponding effect on ATP synthesis was measured with a bioluminescent substrate.
Assay Experimental: • In brief, HepG2 cells were plated at 25,000 cells per well in low glucose (1 gram/Liter) DMEM medium +10% fetal calf serum and incubated for 24 hours. The following day, the media was decanted and subsequently replaced with glucose free/serum free DMEM which has been supplemented with 50 micromolar rotenone and compound of interest. Serial dilutions of compound were prepared in 3× dilutions beginning at 25 micromolar. The cells were incubated for 60 minutes in a humidified tissue culture incubator. Following incubation, ATP levels were quantified via bioluminescent assay (Promega […]) and readings were captured on a standard microplate reader.
Calculations: • ATP bioluminescence is plotted versus the log of compound of interest and data were used to generate EC50 values. Curve fitting was performed using a sigmoidal dose response curve fit function (GraphPad Prism software).
Robustness of curve fit was assessed as a quality control measure, with an R squared value of at least 0.80 being required for a successful curve fit. Compounds of interest showing an increase in ATP bioluminescence relative to vehicle control were verified in an independent biological replicate of n=3 technical replicates per dose.
Discussion: • This assay is a direct measure of the ability of compounds of interest to restore ATP production under conditions of inhibition of Complex I of the mitochondrial electron transport chain. As the majority of ATP produced via the electron transport chain is thought to derive from Complex I activity, significant impairment in Complex I function has dire biological consequences. Of note, Complex I mutations are thought to drive pathophysiology in multiple mitochondrial diseases, including Leigh syndrome and Leber's Hereditary Optic Neuropathy (LHON), while diminished Complex I activity and the resultant attenuation of ATP production has been shown in neurodegenerative diseases, including Friedreich's Ataxia, Parkinson's Disease and Huntington's Disease.

GM03665 cells = assay: RSL3 Toxicity Assay (RSL3 Assay); format: cell-based, human; settings: Homo sapiens, GM03665 cells, RSL3 2 μM, 24 hours, MTT
Experimental: Example 19: RSL3 Toxicity Assay (RSL3 Assay)
In brief, GM03665 cells (Coriell Institute) were seeded in 96-well plates (Sarstedt) in DMEM cell culture media containing 10% Fetal Bovine serum and 1% Penicillin-Streptomycin (Pen-Strep) antibiotic mix at the amount of 2×10^4/mL (100 μL or 2×10^3 cells per well). Cells were left to rest overnight at 37° C. in a humidified atmosphere with 5% CO2 to allow attachment of the cells to the culture plate. Test compounds were prepared as DMSO stocks (10 mM) and were serially diluted in cell culture media to obtain 2× working solutions. Cell media was discarded and replaced by 50 μL of test compound solutions or cell media with vehicle for control wells. Within 15 minutes, 2× working solution (4 μM) of 1S,3R-RSL3 (CAS #1219810-16-8, Sigma-Aldrich) (diluted from 5 mM DMSO stock in cell culture media) was added. Final reaction volume was 100 μL and final DMSO concentration in reaction was kept below 0.2% (v/v) and equal in all wells. Final RSL3 concentration was 2 μM and test compound final concentrations in reaction were up to 1000 nM. After 24 hours of incubation cell viability was assessed by MTT test. MTT (Sigma-Aldrich) solution 1 mg/mL in 1×PBS (pH=7,4) was prepared 1 hour before the assay and filtered through Filtropur S 0.2 filters (Sarstedt). Cell media with test compounds was discarded and 100 μL of MTT solution was added to cells. The plates were incubated for 2 hours at +37° C. Thereafter, the MTT solution was removed and 100 μL of isopropanol was added to dissolve sediment. Absorption at 570 and 650 nm was measured using Hidex Sense microplate reader.

Nrf-2 = Nrf-2 Activation Assay (Nrf-2 Assay); format: cell-based, human; settings: 1 μM, 24 hours; for Nrf-2 Assay: Table 7, GM03665 fibroblasts, qPCR of Nrf-2 responsive genes
Experimental: Example 21: Nrf-2 Activation Assay (Nrf-2 Assay)
This assay was developed internally and was designed to determine if the novel test compounds disclosed herein active Nrf-2 and thereby promote resolution of inflammation by the mechanism believed to be responsible for the activity of omaveloxolone.
Briefly, GM03665 Friedreich Ataxia patient fibroblasts were grown in 12 Well Plates (TC Cell+F) (Sarstedt, Nümbrecht Germany), at a density of 12×10^4 cells/per well in DMEM/F12 (Gibco, ThermoFisher Scientific, Waltham, Mass., USA) cell media supplemented with 10% FBS and 1% Pen/Strep. Cells were left to rest overnight at 37° C. in a humidified atmosphere with 5% CO2 to allow attachment of the cells to the culture plate. Before continuing assay visual inspection of each well was done by light microscopy to detect any possible bacterial and fungal contamination. […] After incubation, cell media was removed and total RNA from the cells was isolated using E.Z.N.A.® Total RNA Kit I (Omega Bio-tek, Norcross, Ga., USA) spin columns, and first-strand cDNA synthesis was carried out using a High Capacity cDNA Reverse Transcription Kit (Applied Biosystems™, Foster City, Calif.) following the manufacturer's instructions. qPCR analysis of gene expression was performed by mixing SYBR® Green Master Mix (Applied Biosystems™) with synthesized cDNA and forward and reverse primers. […] (60 cycles), and 95° C. for 60 seconds, followed by melt curve analysis at 72-95° C., 0.3° C./sec. The relative expression levels for each gene were calculated with the ΔΔCt method and normalized to the expression of REEP5 and SNRPD3 genes.

[3] = ATP bioluminescence, read-out: EC50 Rotenone ATP Assay
[4] = Table 7, read-out: Rotenone ATP Assay EC50
[5] = Table 3, mean of at least three measurements, nM printed in Table 7, read-out: RSL3 Assay EC50, Mean
[6] = Table 7, read-out: RSL3 Assay EC50

| Structure (SMILES) | EC50 ([1]; read-out: EC50 (nM) BSO Assay) [nM] | EC50 [2, 3] [nM] | EC50 ([1]; read-out: BSO Assay) [nM] | also measured |
| --- | --- | --- | --- | --- |
| C/C(=C\CC[C@]1(C)CCc2c(C)c(O)c(C)c(C)c2O1)CCC=C(F)F [Compound 56, (R,E)-2-(8,8-difluoro-4-methylocta-3,7-dien-1-yl)-2,5,7,8-tetramethylchroman-6-ol] | < 100 | – | – | – |
| Cc1c(C)c2c(c(C)c1O)CC[C@@](C)(CCC=C(F)F)O2 [Compound 67, (R)-2-(4,4-difluorobut-3-en-1-yl)-2,5,7,8-tetramethylchroman-6-ol] | < 100 | – | – | Activity in both the BSO Assay and the Rotenone ATP Assay (in words) [2]: possess both activities |
| CC1=C(C)C(=O)C(CC[C@](C)(O)CC/C=C(\C)CC/C=C(\C)CCC=C(CF)CF)=C(C)C1=O [Compound A, 2-((R,6E,10E)-16-fluoro-15-(fluoromethyl)-3-hydroxy-3,7,11-trimethylhexadeca-6,10,14-trien-1-yl)-3,5,6-trimethylcyclohexa-2,5-diene-1,4-dione] | < 100 | – | – | – |
| CC(=CCC/C(C)=C/CC/C(C)=C/CC[C@@](C)(O)CCC1=C(C)C(=O)C(C)=C(C)C1=O)CF [Compound B, 2-((R,6E,10E)-16-fluoro-3-hydroxy-3,7,11,15-tetramethylhexadeca-6,10,14-trien-1-yl)-3,5,6-trimethylcyclohexa-2,5-diene-1,4-dione] | < 100 | – | – | – |
| CC1=C(C)C(=O)C(CC[C@](C)(O)CC/C=C(\C)CC/C=C(\C)CCC=C(F)F)=C(C)C1=O [Compound C, 2-((R,6E,10E)-15,15-difluoro-3-hydroxy-3,7,11-trimethylpentadeca-6,10,14-trien-1-yl)-3,5,6-trimethylcyclohexa-2,5-diene-1,4-dione] | < 100 | – | – | – |
| CC1=C(C)C(=O)C(CC[C@](C)(O)CC/C=C(\C)CC/C=C(\C)CCC=C2CCC2)=C(C)C1=O [Compound D, 2-((R,6E,10E)-14-cyclobutylidene-3-hydroxy-3,7,11-trimethyltetradeca-6,10-dien-1-yl)-3,5,6-trimethylcyclohexa-2,5-diene-1,4-dione] | < 100 | > 3000 | – | – |
| CC1=C(C)C(=O)C(CC[C@](C)(O)CC/C=C(\C)CC/C=C(\C)CCC=C2CCCC2)=C(C)C1=O [Compound F, 2-((R,6E,10E)-14-cyclopentylidene-3-hydroxy-3,7,11-trimethyltetradeca-6,10-dien-1-yl)-3,5,6-trimethylcyclohexa-2,5-diene-1,4-dione] | < 100 | – | – | – |
| CC1=C(C)C(=O)C(CC[C@](C)(O)CC/C=C(\C)CC/C=C(\C)CCC=C2CCCCC2)=C(C)C1=O [Compound G, 2-((R,6E,10E)-14-cyclohexylidene-3-hydroxy-3,7,11-trimethyltetradeca-6,10-dien-1-yl)-3,5,6-trimethylcyclohexa-2,5-diene-1,4-dione] | < 100 | – | – | – |
| CC1=C(C)C(=O)C(CC[C@](C)(O)CC/C=C(\C)CCC=C(F)F)=C(C)C1=O [Compound H, (R,E)-2-(11,11-difluoro-3-hydroxy-3,7-dimethylundeca-6,10-dien-1-yl)-3,5,6-trimethylcyclohexa-2,5-diene-1,4-dione] | 100 to 1000 | < 1000 | 164 | EC50 [2, 4]: 1140 nM; EC50 (GM03665 cells; [5]): 179 nM; EC50 (GM03665 cells; [6]): 179 nM; Nrf-2 Assay (Nrf-2): Inactive |
| CC1=C(C)C(=O)C(CC[C@](C)(O)CCC=C(F)F)=C(C)C1=O [Compound I, (R)-2-(7,7-difluoro-3-hydroxy-3-methylhept-6-en-1-yl)-3,5,6-trimethylcyclo-hexa-2,5-diene-1,4-dione] | 100 to 1000 | > 3000 | – | – |
| CC1=C(C)C(=O)C(CC[C@@](C)(O)CC/C=C(\C)CC/C=C(\C)CCC=C(F)F)=C(C)C1=O [Compound J, 2-((S,6E,10E)-15,15-difluoro-3-hydroxy-3,7,11-trimethylpentadeca-6,10,14-trien-1-yl)-3,5,6-trimethylcyclohexa-2,5-diene-1,4-dione] | < 100 | – | – | – |
| CC1=C(C)C(=O)C(CC[C@@](C)(O)CCC=C(F)F)=C(C)C1=O [Compound K, (S)-2-(7,7-difluoro-3-hydroxy-3-methylhept-6-en-1-yl)-3,5,6-trimethylcyclo-hexa-2,5-diene-1,4-dione] | < 100 | > 3000 | – | – |
| CC1=C(C)C(=O)C(CC[C@@](C)(O)CC/C=C(\C)CCC=C(F)F)=C(C)C1=O [Compound L, (S,E)-2-(11,11-difluoro-3-hydroxy-3,7-dimethylundeca-6,10-dien-1-yl)-3,5,6-trimethylcyclohexa-2,5-diene-1,4-dione] | < 100 | < 1000 | 39.1 | EC50 [2, 4]: 891 nM; Activity in both the BSO Assay and the Rotenone ATP Assay (in words) [2]: possess both activities; EC50 (GM03665 cells; [5]): 41.9 nM; EC50 (GM03665 cells; [6]): 41.9 nM; Nrf-2 Assay (Nrf-2): Inactive |
| CC1=C(C)C(=O)C(CC[C@](C)(O)CCCCCCCCC(F)(F)F)=C(C)C1=O [Compound N, (R)-2,3,5-trimethyl-6-(12,12,12-trifluoro-3-hydroxy-3-methyldodecyl)cyclo-hexa-2,5-diene-1,4-dione] | 100 to 1000 | 1000 to 3000 | 144 | EC50 [2, 4]: 2360 nM; Activity in both the BSO Assay and the Rotenone ATP Assay (in words) [2]: possess both activities; EC50 (GM03665 cells; [5]): 93 nM; EC50 (GM03665 cells; [6]): 93 nM; Nrf-2 Assay (Nrf-2): Inactive |
| COC1=C(OC)C(=O)C(CCCCCCCCCCO)=C(C)C1=O [Idebenone, reference compound] | – | 1000 to 3000 | > 1000 | EC50 [2, 4]: 1560 nM |
| CC1(C)CC[C@]2(NC(=O)C(C)(F)F)CC[C@]3(C)[C@H](C(=O)C=C4[C@@]5(C)C=C(C#N)C(=O)C(C)(C)[C@@H]5CC[C@]43C)[C@@H]2C1 [Omaveloxolone, reference compound] | < 100 | > 3000 | 48.6 | Activation of Nrf-2 responsive genes (in words, FIG. 7) (Nrf-2): positive; Nrf-2 Assay (Nrf-2): Active |
